The term EC50 denotes the concentration giving half of the maximal effect.

This test concerns UPR adaptive arm reporter cells, luciferase luminescence. The test is described as follows: adaptive unfolded protein response reporter activation – cell-based, luciferase luminescence, dose response (AID 489032).

Active and inactive are the calls of the source. No rule for the calls is given here.

As for `CCc1cccc(CC)c1NC(=O)/C(C#N)=C/c1ccccc1C(F)(F)F`, the EC50 was > 80 µM (inactive).
`CCc1ccc(-c2nc(CN3CCC(C(=O)NCCN(CC)c4ccccc4)CC3)c(C)o2)cc1`: the EC50 is > 80 µM (inactive).
On to `Cn1c(Cl)cnc1C1CC(=O)c2cc(Cl)ccc2O1` (stereo not given), for which the EC50 was 18.9 µM.
`NS(=O)(=O)c1ccc(N/N=C/c2cn(-c3ccccc3)nc2-c2ccccc2)c([N+](=O)[O-])c1`: the EC50 was > 80 µM (inactive).
`Oc1ccc(-c2nc3ccc4ccccc4c3c3c2CCC3)cc1O`: the EC50 is 28.4 µM (inactive).
As to `COc1ccc(/C=c2\s/c(=C(/C#N)C(=O)NCc3ccco3)n(-c3ccccc3)c2=O)cc1`, the EC50 is > 80 µM (inactive).
As for `COc1ccc(-c2cc(=O)oc3c(C)c(OC(=O)c4cccs4)ccc23)cc1`, the EC50 was > 80 µM (inactive).
As to `Nc1nc(Nc2cccc(F)c2)nc2ccccc12`, the EC50 was 73.9 µM (inactive).
With `Cc1cccn2c(=O)c3cc(C(=O)NC4CCCCCC4)sc3nc12`, the EC50 is > 80 µM (inactive).
For the molecule `CCCNC(=O)/C(C#N)=C1\N=C(NC(=O)c2cccs2)c2ccccc21`, the EC50 is > 80 µM (inactive).
Regarding `Cn1c2ccccc2c2cc(/C=N/NC(=O)c3cc(O)ccc3O)ccc21`, the EC50 was 38.1 µM (inactive).
The result for `O=C(/C=C/c1ccc(Cl)cc1)NC(=S)Nc1ccc(N2CCOCC2)c(Cl)c1` reads > 80 µM (inactive).
The value for `Cc1cc(NC(=O)c2cc(-c3ccccn3)nc3ccc(Br)cc23)no1` was > 80 µM (inactive); that for `Cc1ccc(-c2ccnc(-c3ccc(O)cc3)n2)cc1` was 63.8 µM (inactive).
As for `Cc1nc2ccccc2n1-c1nc(-c2ccco2)cc(C(F)(F)F)n1`, the EC50 was > 80 µM (inactive).
`COc1ccc2nc(NC(=O)c3cccc(-c4cc5ccccc5oc4=O)c3)sc2c1`: the EC50 is > 80 µM (inactive).
For the molecule `CCCC[C@@H](C)C[C@@H](C)C(=O)N(C)[C@@H](CC(C)C)C(=O)N[C@H](C(=O)N(C)[C@H](C(=O)N1C[C@@H](O)C[C@H]1C(=O)N1C(=O)C=C[C@@H]1C)C(C)C)C(C)OC(C)=O` (stereo not given in full), the concentration for a half-maximal effect (EC50) was 13.4 µM.
`Cc1ccc(-c2nnn(CC(=O)Nc3ccc(S(=O)(=O)N4CCC(C)CC4)cc3)n2)cc1`: the EC50 was > 80 µM (inactive).
`CCCCCCCCCCOC(=O)Cn1c(COc2ccc(Cl)cc2)[n+](C)c2ccccc21`: the EC50 was > 80 µM (inactive).
The value for `Cc1ccc(O)c(NC(=S)NC(=O)Cc2ccc(Cl)cc2)c1` was 27.1 µM (inactive); that for `Cc1cc(N2CCN(c3ccc([N+](=O)[O-])c4cccnc34)CC2)c2ccccc2n1` was 21.4 µM (inactive).
For `Cc1ccc(-c2nn(CC(=O)NCc3cc(-c4nn(C)c(=O)c5ccccc45)ccc3C)c(=O)c3ccccc23)cc1`, the EC50 was > 80 µM (inactive).
As to `CCc1sc2nc(SCC(=O)Nc3cc(C)on3)n(-c3cccc(OC)c3)c(=O)c2c1C`, the EC50 is > 80 µM (inactive).
Turning to `Oc1ccc(/C=N/Nc2cc(N3CCOCC3)nc(N3CCOCC3)n2)cc1O`, the EC50 was > 80 µM (inactive).
Take `CCCCCc1nc2c(c(=O)c3ccccc3n2C)c(=O)n1C1CCCCCC1`: the EC50 is > 80 µM (inactive).
As to `CC(C)c1ccc(/C=C/C(=O)Nc2nc3ccc([N+](=O)[O-])cc3s2)cc1`, the EC50 was > 80 µM (inactive).
Take `Cc1ccc2nc(Nc3nc(-c4ccccc4)cc(=O)[nH]3)nc(C)c2c1`: the EC50 is 19.3 µM.
For `CCc1ccc2[nH]c3nc(SCC(=O)NNC(=O)c4ccc(C(C)(C)C)cc4)nnc3c2c1`, the EC50 is 32.3 µM (inactive).
As for `N#C/C(=C\c1ccc(OCc2ccccc2)cc1)C(=O)Nc1nc2c(s1)CCN(Cc1ccccc1)C2`, the EC50 was > 80 µM (inactive).
As for `Cc1ccc2c(c1)c(N=NC(N)=S)c(O)n2Cc1ccccc1`, the EC50 was 61.8 µM (inactive).
The value for `COc1cc([N+](=O)[O-])cc(/C=N/NC(=O)c2ccc(NC(=O)c3ccc(C)cc3)cc2)c1O` was > 80 µM (inactive); that for `Cc1cccnc1Nc1nc(-c2ccc(O)c(O)c2)cs1` was > 80 µM (inactive); that for `Cc1cc(NC(=O)c2cc(-c3ccncc3)nc3ccccc23)ccc1Br` was 27.8 µM (inactive).
The value for `COc1ccc(-c2ccc3c(c2)S(=O)(=O)c2cccc(C(=O)NCCOc4ccccc4Cl)c2C3=O)cc1OC` was > 80 µM (inactive); that for `C/C(CC(C)(C)C1CCCCC1)=N\NC(N)=S` was > 80 µM (inactive); that for `CCCCCCCCCCOC(=O)Cn1c(COc2ccccc2C)[n+](C)c2ccccc21` was > 80 µM (inactive).
`CCC(=O)Nc1ccc(-c2cc(-c3ccccc3)nc(-c3ccc(NC(=O)CC)cc3)n2)cc1`: the EC50 is > 80 µM (inactive).
In the case of `O=[N+]([O-])c1ccc(Cl)c(-c2ccc(/C=N/c3c(-c4ccco4)nc4ccccn34)o2)c1`, the EC50 was 39.3 µM (inactive).
With `CN(C)CCCN(C(=O)c1ccc(S(=O)(=O)N2CCCCCC2)cc1)c1nc2ccc(Br)cc2s1`, the EC50 is > 80 µM (inactive).
Turning to `CCCCCCCCCCOC(=O)Cn1c(COc2ccc(OC)cc2)[n+](C)c2ccccc21`, the EC50 is > 80 µM (inactive).
For `COC(=O)c1c(NC(=O)c2nc3ccccc3s2)sc2c1CC(C)(C)NC2(C)C`, the EC50 is > 80 µM (inactive).
Consider `Cc1c(C(=O)Nc2nccs2)oc2ccc(Br)cc12`, for which the EC50 was > 80 µM (inactive).
As for `OC(CNCC1CCCO1)Cn1c2ccc(Br)cc2c2cc(Br)ccc21` (stereo not given), the EC50 is > 80 µM (inactive).
In the case of `COc1ccc(Cc2nnc(N/N=C/c3ccc(N(C)C)cc3)[nH]c2=O)cc1OC`, the EC50 is 25.5 µM (inactive).
Turning to `Brc1ccc(-c2ccc(/C=N/Nc3nncc(-c4ccccc4)n3)o2)cc1`, the EC50 was 77.6 µM (inactive).
On to `Cc1ccc(S(=O)(=O)Cc2cc(F)c([N+](=O)[O-])cc2[N+](=O)[O-])cc1`, for which the EC50 was > 80 µM (inactive).
With `CCc1ccc2nc(N(CCCN(C)C)C(=O)c3ccc(S(=O)(=O)N4CCc5ccccc5C4)cc3)sc2c1`, the EC50 is > 80 µM (inactive).
As to `O=C(/C=C1\NC2(CCCC2)Cc2ccccc21)C(=O)N/N=C/c1ccc(O)c(O)c1`, the EC50 is 32 µM (inactive).
Regarding `CN(C)CCOc1ccc(-c2c(-c3ccccc3)sc3ccccc23)cc1`, the EC50 was > 80 µM (inactive).
Turning to `Oc1cccc(-c2nc3c4c(ncn3n2)-c2ccccc2CC42CCCC2)c1`, the EC50 is > 80 µM (inactive).
With `COc1ccc(C(CCNCc2ccc(F)cc2)c2ccc(F)cc2)cc1` (stereo not given), the EC50 was 9.17 µM.
`O=C(Oc1ccccc1/C=C\C(=O)c1cc2ccccc2o1)c1cccc(F)c1`: the EC50 was > 80 µM (inactive).
On to `CCOC(=O)C1=C(C)N=c2s/c(=C3/C(=O)Nc4ccccc43)c(=O)n2C1c1ccc(C)cc1` (stereo not given), for which the EC50 was > 80 µM (inactive).
Turning to `CCOc1cc2c3c(c1)C(C)=CC(C)(C)N3C(=O)C2=O`, the EC50 is 54.6 µM (inactive).
Take `CCn1c(/C=C/c2c(C)[nH]c3ccccc23)nc2ccccc2c1=O`: the EC50 was > 80 µM (inactive).
Take `Nc1cccc(-c2nc3cc(S(=O)(=O)c4ccc5oc(-c6cccc(N)c6)nc5c4)ccc3o2)c1`: the EC50 is 24.1 µM (inactive).
The value for `CCCCC1CCC(C(=O)N(CC(C)C)c2c(N)n(CCCC)c(=O)[nH]c2=O)CC1` (stereo not given) was > 80 µM (inactive); that for `CCOC(=O)c1[nH]c2ccc(Cl)cc2c1NC(=O)/C=C/c1ccc2c(c1)OCO2` was 74.2 µM (inactive).
Consider `Cc1ccc(Nc2nc(NCCO)c3ccccc3n2)cc1C`, for which the EC50 is > 80 µM (inactive).
Regarding `CCOc1cc(/C=N/NC(=O)Cn2nc([N+](=O)[O-])cc2C)cc(Br)c1OCc1ccccc1C`, the EC50 is > 80 µM (inactive).
As for `C=CCn1c(O)c(C2=c3ccccc3=NC2=O)sc1=Nc1ccc(O)cc1`, the EC50 is 38.7 µM (inactive).
On to `NS(=O)(=O)c1ccc(NC(=O)COC(=O)c2cn(-c3ccccc3)nc2-c2ccc(F)cc2)cc1`, for which the EC50 was > 80 µM (inactive).
Regarding `O=C(Nc1ccc2nc3n(c(=O)c2c1)CCCCC3)c1ccccc1Cl`, the EC50 is > 80 µM (inactive).
In the case of `CCC(C)Nc1nc(N)c([N+](=O)[O-])c(NC2CCCCC2)n1` (stereo not given), the EC50 was 55.9 µM (inactive).
As to `CCCn1c(SCc2nc3sc(C)c(C)c3c(=O)[nH]2)nc2ccccc2c1=O`, the EC50 is 72 µM (inactive).
On to `CC(C)(C)c1csc(NC(=O)c2ccc(Cl)s2)n1`, for which the EC50 is > 80 µM (inactive).
As for `CCOc1cc(/C=N/NC(N)=S)cc(Br)c1OCc1ccccc1C`, the EC50 is > 80 µM (inactive).
The value for `NCCOc1ccc(C23CC4CC(CC(C4)C2)C3)cc1` was > 80 µM (inactive); that for `Cc1c(NC(=O)CSc2ccc(Cl)cc2)cccc1-c1nc2cc(Cl)ccc2o1` was > 80 µM (inactive).
The value for `C=CCOc1ccc(/C=N/N2C(=O)C(CC(=O)Nc3ccc(F)cc3F)SC2=NC)cc1` (stereo not given) was > 80 µM (inactive).
Take `CCCCCCCCCCn1c2c(c(=N)c3c1CCC3)CCC2`: the EC50 is 24.9 µM (inactive).
Turning to `CCCc1nc2c(c(=O)c3ccccc3n2C)c(=O)n1C1CCCCCC1`, the EC50 is > 80 µM (inactive).
`O=C(NC(=S)Nc1ccc(NC(=O)c2cccs2)cc1)c1cc2ccccc2o1`: the EC50 was > 80 µM (inactive).
For `COc1cc(/C=C(\C#N)c2nc3ccccc3[nH]2)cc(Br)c1OCc1ccc(F)cc1`, the EC50 was > 80 µM (inactive).
For the molecule `COc1ccc(CNC(=O)/C(C#N)=C/c2cccc(OC)c2OC)cc1`, the EC50 was 73 µM (inactive).
Regarding `COc1ccc2[nH]c3c(c2c1)CCN1C(=O)C(CC(=O)NC/C=C(\C)CCC=C(C)C)C[C@H](C(=O)N2CCOCC2)[C@@]31CCC1CCCC1` (stereo not given in full), the EC50 is > 80 µM (inactive).
The value for `CCCCCC(=O)Nc1ccc(C(=O)N/N=C/c2ccc([N+](=O)[O-])cc2)cc1` was > 80 µM (inactive).
`Cn1nnnc1Sc1ncnc2scc(-c3ccc(Br)cc3)c12`: the EC50 is > 80 µM (inactive).
With `COc1ccc(C(=O)Nc2cccc(/C=C/c3nc4ccccc4c(=O)[nH]3)c2)cc1`, the EC50 is > 80 µM (inactive).
As for `COc1ccc(-c2csc(NC(=S)NC(=O)/C=C/c3ccco3)n2)cc1Br`, the EC50 is 41.9 µM (inactive).

The values are drawn from PubChem BioAssay AID489032 (Sanford-Burnham Center for Chemical Genomics, 2010).
